EP0385936A1, “Peptide lactone and derivatives thereof, process for their production and means for carrying out the process” (CIBA-GEIGY AG, priority 1989, dated 1990)
Converted amounts (≈) assume the structure as drawn.

Tests used:
[1] = tested on: durch anti-CD 3 monoklonale Antikörper induzierten T-Zell-Proliferation in menschlichem Blut; experiment: Inhibition of T-cell proliferation induced by anti-CD 3 monoclonal antibodies in human blood (3H-thymidine); format: cell-based, menschlich; details: 50 ng/ml anti-CD 3 antibody, 48 h + 16 h 3H-thymidine, read-out: IC₅₀
Description: Hemmung der durch anti-CD 3 monoklonale Antikörper induzierten T-Zell-Proliferation in menschlichem Blut
Venöses menschliches Blut wird mit 10 Einheiten Heparin pro ml versetzt und im Verhältnis 1:6 (v:v) mit RPMI 1640 Medium (Gibco) verdünnt. Nach Zugabe von 50 ng/ml anti-CD 3 monoklonalen Antikörpern (TR 66, IgG1K) werden pro Loch 150 µl verdünntes Blut in eine Lochtiterplatte mit 96 Löchern eingefüllt. Dann werden pro Loch 50 µl einer Verbindung der Formeln I oder III in dem obengenannten RPMI Medium hinzugefügt. Als Referenzverbindungen verwendet man Cyclosporin A (CSA, Sandoz, Basel, Schweiz) oder Prednisolon.
Nach 48 Stunden bei 37°C und einem Gehalt von 7 Volumenprozent CO₂ in der Luft fügt man pro Loch 1.0 µCi ³H-Thymidin in 10 µl RPMI Medium (Amersham: spezifische Aktivität 5 Ci/mMol).
Nach weiteren 16 Stunden werden die Zellen mit einer 96-Loch-Erntemaschine (LKB, Bromma, Schweden) auf Glasfiberfiltern (LKB) geerntet. Nach dem Trocknen der Filter wird ihre Radioaktivität gemessen (Optiscint[LKB], Betaplatten-Scintillations-Zähler [LKB]). Die Ergebnisse werden als Durchschnittswerte der für jedes Loch bei drei verschiedenen Konzentrationen in An- und Abwesenheit der Prüfsubstanzen ermittelten cpm (counts pro Minute) ausgedrückt und die Wirkung der Substanzen wird als prozentuale Hemmung angegeben, welche folgendermassen definiert ist: [formula] […]

[2] = tested on: Streptomyces griseoflavus (DSM 5195); experiment: Induction of aerial mycelium on test plates (paper disc on agar); format: cell-based; details: 1 µg in a paper disc on agar on which no aerial mycelium develops
Description: Hormaomycin induziert die Luftmycelbildung von Streptomyces griseoflavus (DSM 5195) und von weiteren Streptomyces-Stämmen. […] Zusätzlich induziert die Substanz die Antibiotikaproduktion in diesen Stämmen.

[3] = tested on: durch Interleukin-2 induzierten T-Zell-Proliferation in menschlichem Blut; experiment: Inhibition of T-cell proliferation induced by interleukin-2 in human blood (3H-thymidine); format: cell-based, menschlich; details: 100 Einheiten/ml recombinant interleukin-2, read-out: IC₅₀
[4] = tested on: Streptomyces griseoflavus (Tü 1306); experiment: Increase of tirandamycin production in fermentation broth; format: cell-based
Description: (§1) Hormaomycin bewirkt bereits in einer Konzentration ab etwa 0,05 µg/ml bei einigen Streptomyceten-Stämmen eine Erhöhung der Bildung von Antibiotika.

[5] = tested on: einigen Streptomyceten-Stämmen; experiment: Increase of antibiotic formation in Streptomyces strains; format: cell-based; details: lowest effective concentration; read-out: Konzentration, ab der eine Erhöhung der Bildung von Antibiotika bewirkt wird
Description: as §1

[6] = tested on: Arthrobacter oxydans ATCC 14358; experiment: Agar dilution series test, minimal inhibitory concentration; format: cell-based; details: Pseudarthrobacter oxydans, ATCC14358, in vitro, read-out: Minimale Hemmkonzentration
Description: (§2) Hormaomycin zeigt in vitro in einem Agar-Verdünnungsreihentest eine antimikrobielle Wirkung gegen einige Bakterien, z.B. Arthrobacter crystallopoites, Arthrobacter oxydans, Corynebacterium species, Brevibacterium linens und Salmonella typhimurium. Die minimale Hemmkonzentration liegt im Bereich zwischen 0,0001 und 50 µg/ml. Die nachfolgende Tabelle offenbart einige spezifische Beispiele: […]

[7] = tested on: Corynebacterium sp. ATCC 23830; experiment: as above; format: cell-based; details: ATCC23830, in vitro, read-out: Minimale Hemmkonzentration
Description: as §2

[8] = tested on: Arthrobacter crystallopoietes ATCC 15481; experiment: as above; format: cell-based; details: Crystallibacter crystallopoietes, ATCC15481, in vitro, read-out: Minimale Hemmkonzentration
Description: as §2

[9] = tested on: Brevibacterium linens ATCC 9172; experiment: as above; format: cell-based; details: ATCC9172, in vitro, read-out: Minimale Hemmkonzentration
Description: as §2

[10] = tested on: Salmonella typhimurium ATCC 13311; experiment: as above; format: cell-based; details: Salmonella enterica, in vitro, read-out: Minimale Hemmkonzentration
Description: as §2

[11] = Solubility in solvents (qualitative); format: physicochemical
Description: Hormaomycin ist neutral, löst sich gut in Methanol, Chloroform, Aceton und Essigsäureethylester und ist in Wasser oder Hexan unlöslich. Auf Dünnschichtchromatographie-Platten löscht es UV-Licht (254 nm), färbt sich beim Stehen an der Luft langsam gelb und lässt sich nach Barrollier (blaugrün) und mit Ehrlich's Reagenz (blass violett), nicht jedoch mit Ninhydrin anfärben.

C/C=C\C1CC2C(=O)OC(C)C(NC(=O)C(CC3CC3[N+](=O)[O-])NC(=O)c3ccc(Cl)n3O)C(=O)NC(C(C)c3ccccc3)C(=O)NC(CC3CC3[N+](=O)[O-])C(=O)NC(C(C)c3ccccc3)C(=O)NC(C(C)CC)C(=O)N2C1 (stereo not shown) [Hormaomycin]
IC50 [1]: 1.5 to 15 µM
Luftmycelbildung [2]: reichliche Luftmycelbildung
IC50 [3]: 4 to 40 µM
Produktion des Antibiotikums Tirandamycin ([4]; Hormaomycin 0,05 µg/ml added to fermentation broth): Verdoppelung
Produktion des Antibiotikums Tirandamycin ([4]; Hormaomycin 1 µg/ml added to fermentation broth): ungefähre Vervierfachung
minimal effective concentration [5]: ~0.05 µg/mL
MIC [6]: 0.0005 µg/mL (≈ 0.443 nM)
MIC [7]: 0.1 µg/mL (≈ 88.5 nM)
MIC [8]: 0.0001 µg/mL (≈ 0.0885 nM)
MIC [9]: 10 µg/mL (≈ 8850 nM)
MIC [10]: 50 µg/mL (≈ 44300 nM)
Löslichkeit ([11]; in Methanol, Chloroform, Aceton und Essigsäureethylester): löst sich gut
Löslichkeit ([11]; in Wasser oder Hexan): unlöslich
